According to US20110230472A1, “RING-FUSED AZOLE DERIVATIVE HAVING PI3K-INHIBITING ACTIVITY” (Shionogi & Co., Ltd., priority 2008, published 2011):

Target: PI-3 kinase γ (Homo sapiens, UniProt P48736)
Test: PI3Kγ inhibitory activity, PI3-kinase HTRF assay (inhibition ratio)
Format: biochemical
Settings: 0.5 h
Experimental: The PI3Kγ inhibitory activity of a compound was evaluated using PI3-kinase HTRF™ assay (Millipore) according to the following procedure:
To each well of a testing plate, 5 μL of a compound solution containing 10% DMSO (200 μmol/L or 40 μmol/L as the concentration of the compound), 5 μL of a substrate solution (40 μmol/L phosphatidylinositol (4,5)-bisphosphate, 20 mmol/L MgCl2, 10 mmol/L DTT), and 5 μL of a enzyme solution (80 μg/mL PI-3 kinase γ, 10 mmol/L MgCl2, 5 mmol/L DTT) were added, and then allowed to stand for 10 minutes.
Then, 5 μL of a reaction solution (40 μmol/L ATP, 10 mmol/L MgCl2, 5 mmol/L DTT) was added thereto. After reacting for 30 minutes at room temperature, 5 μL of a solution containing EDTA and biotinylated phosphatidylinositol (3,4,5)-triphosphate were added to quench the reaction.
5 μL of a detection reagent containing a europium-labeled anti-GST antibody, the GST-tagged PH domain, and allophycocyanin-labeled streptavidin was added thereto. After 18 hours, HTRF (excitation wavelength: 330 nm, measured wavelengths: 620 nm and 665 nm) was measured.
HTRF ratio was defined as the value obtained by dividing the amount of fluorescence obtained at the measured wavelength 665 nm by the amount of fluorescence obtained at 620 nm. The HTRF ratio in the absence of a compound was defined as 100% activity and the HTRF ratio in the absence of PI-3 kinase γ was defined as 0% activity to calculate an inhibition ratio which was defined as the PI3Kγ inhibitory activity of a compound at 50 μmol/L or 10 μmol/L.

Chain of PI-3 kinase γ (P48736 whole entry): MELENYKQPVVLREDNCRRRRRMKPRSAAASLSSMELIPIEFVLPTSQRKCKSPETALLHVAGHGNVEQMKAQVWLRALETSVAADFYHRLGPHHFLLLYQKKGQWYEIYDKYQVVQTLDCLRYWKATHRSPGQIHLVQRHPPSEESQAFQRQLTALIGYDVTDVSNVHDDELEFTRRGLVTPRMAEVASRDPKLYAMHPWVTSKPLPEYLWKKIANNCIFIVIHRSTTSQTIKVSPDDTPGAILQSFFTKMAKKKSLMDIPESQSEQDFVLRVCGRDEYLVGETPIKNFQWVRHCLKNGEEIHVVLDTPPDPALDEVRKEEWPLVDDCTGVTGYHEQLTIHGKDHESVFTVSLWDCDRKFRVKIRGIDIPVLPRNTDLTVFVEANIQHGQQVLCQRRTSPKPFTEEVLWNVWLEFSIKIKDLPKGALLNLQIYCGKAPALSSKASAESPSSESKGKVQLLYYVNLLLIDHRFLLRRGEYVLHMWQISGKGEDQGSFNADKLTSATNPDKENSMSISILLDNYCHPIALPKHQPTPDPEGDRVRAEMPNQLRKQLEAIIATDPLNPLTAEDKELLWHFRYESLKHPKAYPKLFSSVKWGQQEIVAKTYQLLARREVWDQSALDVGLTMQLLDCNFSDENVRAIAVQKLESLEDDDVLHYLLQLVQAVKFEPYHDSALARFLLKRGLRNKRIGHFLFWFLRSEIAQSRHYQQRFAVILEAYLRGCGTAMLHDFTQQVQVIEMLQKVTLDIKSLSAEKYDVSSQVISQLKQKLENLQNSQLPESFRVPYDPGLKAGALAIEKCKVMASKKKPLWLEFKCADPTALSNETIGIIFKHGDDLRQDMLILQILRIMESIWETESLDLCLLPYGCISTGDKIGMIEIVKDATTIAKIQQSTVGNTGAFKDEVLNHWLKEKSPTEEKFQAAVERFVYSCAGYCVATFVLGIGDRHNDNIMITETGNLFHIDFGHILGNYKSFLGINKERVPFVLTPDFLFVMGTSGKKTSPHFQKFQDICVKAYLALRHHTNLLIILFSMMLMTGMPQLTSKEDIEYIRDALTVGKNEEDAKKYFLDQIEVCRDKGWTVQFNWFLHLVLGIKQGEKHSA

inhibition at 10 µM (PI3Kγ, compound at 10 μM) | further results | SMILES
82% |  | COc1cc(N2CCc3nc(NC(=O)NCCCN4CCCC4=O)sc3C2)nc(OC)n1 [Compound I-253]
 | inhibition at 50 µM (PI3Kγ, compound at 50 μM): 81% | CNC(=O)Nc1cc2n(n1)CCN2c1cc(C#Cc2cccnc2)cc(C(=O)N2CCOCC2)c1 [Compound I-254]
78% |  | CNC(=O)Nc1cc2n(n1)CCN2c1ccc(C(=O)NC)s1 [Compound I-256]
 | inhibition at 50 µM (PI3Kγ, compound at 50 μM): 83% | COc1cc(N2CCc3nc(NC(=O)[C@H](O)c4ccccc4)sc3C2)nc(OC)n1 [Compound I-257]
 | inhibition at 50 µM (PI3Kγ, compound at 50 μM): 92% | COc1cc(N2CCc3nc(NC(=O)[C@@H](O)c4ccccc4)sc3C2)nc(OC)n1 [Compound I-258]
 | inhibition at 50 µM (PI3Kγ, compound at 50 μM): 89% | COc1cc(N2CCc3nc(NC(=O)C(=O)c4ccccc4)sc3C2)nc(OC)n1 [Compound I-259]
 | inhibition at 50 µM (PI3Kγ, compound at 50 μM): 93% | CNC(=O)Nc1cc2n(n1)CCN2c1cc(CCc2ccccc2)cc(C(=O)N2CCOCC2)c1 [Compound I-260]
90% |  | COc1cc(N2CCc3nc(NC(=O)NCCCC(=O)OC(C)(C)C)sc3C2)nc(OC)n1 [Compound I-261]
≥ 95% |  | CNC(=O)Nc1nc2c(s1)CN(c1cc(Oc3ccccc3)nc(OCCCO)n1)CC2 [Compound I-263]
89% |  | COc1cc(N2CCc3nc(NC(=O)CC(=O)OC(C)(C)C)sc3C2)nc(OC)n1 [Compound I-264]
 | inhibition at 50 µM (PI3Kγ, compound at 50 μM): ≥ 95% | CNC(=O)Nc1cc2n(n1)CCN2c1cc(C(=O)N2CCOCC2)cc(C2CCCCC2)c1 [Compound I-267]
≥ 95% |  | COc1cc(N2CCc3nc(NC(=O)Cc4cc(OC)c(OC)c(OC)c4)sc3C2)nc(OC)n1 [Compound I-268]
≥ 95% |  | COc1cc(N2CCc3nc(NC(=O)Cc4cccc(C(F)(F)F)c4)sc3C2)nc(OC)n1 [Compound I-269]
≥ 95% |  | COc1cc(N2CCc3nc(NC(=O)NCCC(=O)N(C)C(C)(C)C)sc3C2)nc(OC)n1 [Compound I-270]
≥ 95% |  | COc1cc(N2CCc3nc(NC(=O)NCCC(=O)N4[C@H](C)CCC[C@@H]4C)sc3C2)nc(OC)n1 [Compound I-271]
≥ 95% |  | COc1cc(N2CCc3nc(NC(=O)NCCC(=O)N(C(C)C)C(C)C)sc3C2)nc(OC)n1 [Compound I-272]
≥ 95% |  | COc1cc(N2CCc3nc(NC(=O)NCCC(=O)Nc4ccccc4)sc3C2)nc(OC)n1 [Compound I-273]

inhibition at 10 µM (PI3Kγ, compound at 10 μM) | further results | SMILES
≥ 95% |  | COc1cc(N2CCc3nc(NC(=O)NCCC(=O)N(C)c4ccccc4)sc3C2)nc(OC)n1 [Compound I-274]
≥ 95% |  | COc1cc(N2CCc3nc(NC(=O)NCCC(=O)N4CCC[C@H]4C(=O)OC(C)(C)C)sc3C2)nc(OC)n1 [Compound I-275]
≥ 95% |  | COc1cc(N2CCc3nc(NC(=O)N[C@@H](CC(=O)OC(C)(C)C)C(=O)O)sc3C2)nc(OC)n1 [Compound I-280]
≥ 95% |  | COc1cc(N2CCc3nc(NC(=O)CCNC(=O)OC(C)(C)C)sc3C2)nc(OC)n1 [Compound I-281]
86% |  | COc1cc(C(=O)Nc2nc3c(s2)CN(c2cc(OC)nc(OC)n2)CC3)on1 [Compound I-282]
≥ 95% |  | CC(=O)Nc1cc2n(n1)CCN2c1ccc2c(c1)CCC2=O [Compound I-283]
≥ 95% |  | COc1cc(N2CCc3nc(NC(=O)NCC(=O)NCC(C)(C)C)sc3C2)nc(OC)n1 [Compound I-285]
 | inhibition at 50 µM (PI3Kγ, compound at 50 μM): 77% | COc1cccc(N2CCn3nc(N)cc32)c1 [Compound I-286]
≥ 95% |  | COc1cc(N2CCc3nc(NC(=O)NCCCOC(C)(C)C)sc3C2)nc(OC)n1 [Compound I-288]
 | inhibition at 10 µM (compound at 10 μmol/L): 90% | COc1cc(N2CCc3nc(NC(=O)Nc4ccc(C(C)(C)C)cc4)sc3C2)nc(OC)n1 [Compound I-289]
 | inhibition at 50 µM (compound at 50 μmol/L): 88% | COc1cc(N2CCc3nc(NC(=O)NC4CCC(C(C)(C)C)CC4)sc3C2)nc(OC)n1 (stereo not drawn) [Compound I-290]
 | inhibition at 10 µM (compound at 10 μmol/L): ≥ 95% | O=C(Nc1cc2n(n1)CCN2c1ccc2cnccc2c1)OCc1ccccc1 [Compound I-291]
 | inhibition at 10 µM (compound at 10 μmol/L): 86% | COc1cccc(N2CCn3nc(NC(=O)CCNC(=O)OC(C)(C)C)cc32)c1 [Compound I-293]
 | inhibition at 10 µM (compound at 10 μmol/L): 84% | COc1cc(N2CCc3nc(NC(=O)NC4CCCCC4)sc3C2)nc(OC)n1 [Compound I-294]
 | inhibition at 10 µM (compound at 10 μmol/L): 93% | COc1cccc(NC(=O)Nc2nc3c(s2)CN(c2cc(OC)nc(OC)n2)CC3)c1 [Compound I-295]
 | inhibition at 10 µM (compound at 10 μmol/L): 88% | COc1cc(N2CCc3nc(NC(=O)Nc4cccs4)sc3C2)nc(OC)n1 [Compound I-296]
